According to ChEMBL document CHEMBL5053492, “Discovery of tert-amine-based RORγt agonists” (Eur J Med Chem, 2021):

Experiments:
[1] = biological target: T1, Nuclear receptor ROR-gamma (Homo sapiens, UniProt P51449); experiment: Agonist activity at APC-labeled RORgammat LBD (unknown origin) incubated for 1 hr in presence of europium labeled co-activator SRC1 by dual FRET assay
T1 sequence (P51449 whole entry): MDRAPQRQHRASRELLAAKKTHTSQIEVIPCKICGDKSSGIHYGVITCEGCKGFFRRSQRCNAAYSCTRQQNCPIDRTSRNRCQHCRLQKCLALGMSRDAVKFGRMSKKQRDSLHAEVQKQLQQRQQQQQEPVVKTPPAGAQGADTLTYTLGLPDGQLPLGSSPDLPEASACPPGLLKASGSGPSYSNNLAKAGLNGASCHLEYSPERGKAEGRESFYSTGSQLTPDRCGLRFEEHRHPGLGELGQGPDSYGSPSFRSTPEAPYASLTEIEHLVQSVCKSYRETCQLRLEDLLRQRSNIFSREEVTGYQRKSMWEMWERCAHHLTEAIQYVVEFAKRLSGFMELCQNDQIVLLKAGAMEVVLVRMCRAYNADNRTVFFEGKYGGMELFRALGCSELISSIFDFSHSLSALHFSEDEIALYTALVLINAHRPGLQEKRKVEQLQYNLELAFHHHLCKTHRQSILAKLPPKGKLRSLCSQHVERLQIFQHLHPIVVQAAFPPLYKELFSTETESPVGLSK

[2] = biological target: T1, Nuclear receptor ROR-gamma; experiment: Agonist activity at human RORgammat LBD expressed in HEK293T cells assessed as increase in Gal4 reporter gene transcription measured after 16 to 20 hrs by luciferase reporter gene assay; type: cell-based
[3] = biological target: T2, Nuclear receptor ROR-gamma (Mus musculus) (UniProt P51450); experiment: Agonist activity at RORgammat in mouse CD4+ T cells assessed as induction of Th17 cells differentiation by measuring increase in IL17 production at 250 nM measured after 4 days by intracellular staining based flow cytometry (reference value: 16.5 %); type: cell-based; conditions: CD4+ve Th, time 4.0 day
T2 sequence (whole entry): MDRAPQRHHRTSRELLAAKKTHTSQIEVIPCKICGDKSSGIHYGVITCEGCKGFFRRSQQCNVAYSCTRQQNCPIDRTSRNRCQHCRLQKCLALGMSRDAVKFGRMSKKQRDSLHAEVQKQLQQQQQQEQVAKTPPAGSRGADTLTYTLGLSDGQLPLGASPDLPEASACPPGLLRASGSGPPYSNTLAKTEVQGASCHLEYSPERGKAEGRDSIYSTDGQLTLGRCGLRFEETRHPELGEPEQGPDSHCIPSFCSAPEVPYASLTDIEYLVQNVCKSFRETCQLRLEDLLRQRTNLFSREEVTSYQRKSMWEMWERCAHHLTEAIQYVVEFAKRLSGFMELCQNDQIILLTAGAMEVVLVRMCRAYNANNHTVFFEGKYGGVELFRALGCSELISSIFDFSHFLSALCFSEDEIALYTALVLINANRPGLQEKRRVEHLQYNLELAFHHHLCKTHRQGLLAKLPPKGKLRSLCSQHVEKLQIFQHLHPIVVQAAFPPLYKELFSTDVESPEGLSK

SMILES | EC50 [1] [nM] | other results
CCCCN(Cc1ccccc1)Cc1ccc(NC(=O)Cc2ccc(S(=O)(=O)CC)cc2)cc1 | 11.1 | 
CCCN(Cc1ccccc1)Cc1ccc(NC(=O)Cc2ccc(C(=O)O)cc2)cc1 | > 30000 | 
CCCN(Cc1ccccc1)Cc1ccc(C(=O)NCc2ccc(S(=O)(=O)CC)cc2)cc1 | 9.2 | 
CCCN(Cc1ccc(NC(=O)Cc2ccc(S(=O)(=O)CC)cc2)cc1)Cc1cccnc1 | 40.2 | 
CCS(=O)(=O)c1ccc(CC(=O)Nc2ccc(CN(Cc3ccccc3)CC3CC3)c(Cl)c2)cc1 | 8 | 
CCCN(Cc1ccc(NC(=O)Cc2ccc(S(C)(=O)=O)cc2)cc1Cl)CC1CCCCC1 |  | EC50 [2]: 283 nM; Activity [3]: 21.9%
CCCN(Cc1ccccc1)Cc1ccc(NC(=O)NCc2ccc(S(=O)(=O)CC)cc2)cc1 | 58 | 
CCCN(Cc1ccccc1)Cc1ccc(NC(=O)Cc2ccc(S(C)(=O)=O)cc2)cc1 | 43.1 | 
CCS(=O)(=O)c1ccc(CC(=O)Nc2ccc(CN(Cc3ccccc3)CC3CC3)cc2)cc1 | 14 | 
CCS(=O)(=O)c1ccc(CC(=O)Nc2ccc(NCCc3ccccc3)cc2)cc1 | 55.2 | 
CCCN(Cc1ccccc1)Cc1c(Cl)cc(NC(=O)Cc2ccc(S(=O)(=O)CC)cc2)cc1Cl | 8.2 | 
CCCN(CCc1ccccc1)c1ccc(NC(=O)Cc2ccc(S(=O)(=O)CC)cc2)cc1 | 11.6 | 
CCCN(Cc1ccc(NC(=O)Cc2ccc(S(C)(=O)=O)cc2)cc1)CC1CCCCC1 |  | EC50 [2]: 277 nM
CCCN(Cc1ccc(NC(=O)Cc2ccc(S(=O)(=O)CC)cc2)cc1)Cc1ccccc1C | 11.6 | 
CCS(=O)(=O)c1ccc(CC(=O)Nc2ccc(CNCc3ccccc3)cc2)cc1 | > 30000 | 
CCCN(Cc1ccc(NC(=O)Cc2ccc(S(=O)(=O)CC)cc2)cc1)Cc1ccccc1Cl | 16.9 | 
CCCN(Cc1ccc(Cl)cc1)Cc1ccc(NC(=O)Cc2ccc(S(=O)(=O)CC)cc2)cc1 | 16.8 | 
CCCN(Cc1ccccc1)Cc1ccc(NC(=O)Cc2ccc(C#N)cc2)cc1 | 346 | 
CCCN(Cc1ccccc1)Cc1ccc(NC(=O)Cc2ccc(S(=O)(=O)CC)cc2)cc1Cl | 8.7 | 
CCCN(Cc1ccccc1)Cc1ccc(NC(=O)Cc2ccc(S(=O)(=O)CC)cn2)cc1 | 7100 | 
CCS(=O)(=O)c1ccc(CC(=O)Nc2ccc(CN(C)Cc3ccccc3)cc2)cc1 | 101 | 
CCCN(Cc1ccc(NC(=O)Cc2ccc(S(=O)(=O)CC)cc2)cc1)Cc1ccccc1F | 9.4 | 
CCCN(Cc1c(Cl)cc(NC(=O)Cc2ccc(S(C)(=O)=O)cc2)cc1Cl)CC1CCCCC1 |  | EC50 [2]: 382 nM
CCN(Cc1ccccc1)Cc1ccc(NC(=O)Cc2ccc(S(=O)(=O)CC)cc2)cc1 | 36.3 | 
CCCN(Cc1ccccc1)Cc1ccc(NCCc2ccc(S(=O)(=O)CC)cc2)cc1 | 33.6 | 
CCCN(Cc1ccccc1)Cc1ccc(NC(=O)Cc2ccccc2)cc1 | 2170 | 

More lines, main results first:

EC50 [1] [nM] | SMILES | other results
291 | CCCN(Cc1ccc(NC(=O)Cc2ccc(S(=O)(=O)CC)cc2)cc1)CC1CCC1 | 
6530 | CCCN(Cc1ccc(NC(=O)Cc2ccc(S(=O)(=O)CC)cc2)cc1)CC1CC1 | 
79.6 | CCCN(Cc1ccc(NC(=O)Cc2ccc(S(=O)(=O)CC)cc2)cc1)CC1CCC(F)(F)CC1 | 
7.1 | CCS(=O)(=O)c1ccc(CC(=O)Nc2ccc(CN(Cc3ccccc3)CC3CCC3)cc2)cc1 | 
29.1 | CCCN(Cc1ccc(NC(=O)Cc2ccc(S(=O)(=O)CC)cc2)cc1)Cc1cccs1 | 
> 30000 | CCCN(Cc1ccc(NC(=O)Cc2ccc(S(=O)(=O)CC)cc2)cc1)Cc1nccs1 | 
109 | CCCN(Cc1ccc(NC(=O)Cc2ccc(S(=O)(=O)CC)cc2)cc1)CC1CCCC1 | 
285 | CCCN(Cc1ccc(NC(=O)Cc2ccc(S(=O)(=O)CC)cc2)cc1)CC1CCCO1 (stereo unspecified) | 
86.2 | CCCN(Cc1ccc(NC(=O)Cc2ccc(S(=O)(=O)CC)cc2)cc1)CC1CCOCC1 | 
